# Source: patent publication US20100267561A1, “HERBICIDAL PYRIDAZINONE DERIVATIVES” (priority 2007, published 2010)
# Key:
# Format in all cases: in vivo
# [1] = system: winter wheat (TRZAW, Triticum aestivum); experiment: Test F mixtures with safener cloquintocet-mexyl, pre-/postemergence plant response; details: applied alone
# [2] = system: winter barley (HORVX, Hordeum vulgare); experiment: as above; details: applied alone
# [3] = system: wild oat (AVEFA, Avena fatua); experiment: as above; details: applied alone
# [4] = system: field bindweed (Convolvulus arvensis); experiment: Test E pre-/postemergence plant response; details: scale 0 to 100
# How it was run: (§1)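 Pre/post herbicide screen; formulation: non-phytotoxic solvent mix + surfactant. Post timing 1–4 leaves (2–18 cm ht). Greenhouse 14–21 d; visual 0 (none) to 100 (complete control) vs controls.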
# [5] = system: junglerice (Echinochloa colona); experiment: Test D flooded paddy plant response; details: Flood, scale 0 to 100 (0 no effect, 100 complete control), 21 days
# Description: (§2) Three plastic pots (ca. 16-cm diameter) for each application rate were partially filled with sterilized Tama silt loam soil comprising a 35:50:15 ratio of sand, silt and clay and 2.6% organic matter. Separate plantings for each of the three pots were as follows. Seeds from the U.S. of ducksalad (Heteranthera limosa), umbrella sedge (Cyperus difformis) and purple redstem (Ammannia coccinea), were planted into one 16-cm pot for each rate. Seeds from the U.S. of rice flatsedge (Cyperus iria), bearded (Brdd.) sprangletop (Leptochloa fascicularis), one stand of 9 or 10 water-seeded rice seedlings (Oryza sativa cv. ‘Japonica—M202’), and one stand of 6 transplanted rice seedlings (Oryza sativa cv. ‘Japonica—M202’) were planted into one 16-cm pot for each rate. Seeds from the U.S. of barnyardgrass (Echinochloa crus-galli), late watergrass (Echinochloa oryzicola), early watergrass (Echinochloa oryzoides) and junglerice (Echinochloa colona) were planted into one 16-cm pot for each rate. Plantings were sequential so that crop and weed species were at the 2.0 to 2.5-leaf stage at time of treatment.
# (§3) Potted plants were grown in a greenhouse with day/night temperature settings of 30/27° C., and supplemental balanced lighting was provided to maintain a 16-hour photoperiod. Test pots were maintained in the greenhouse until test completion.
# (§4) At time of treatment, test pots were flooded to 3 cm above the soil surface, treated by application of test compounds directly to the paddy water, and then maintained at that water depth for the duration of the test. Effects of treatments on rice and weeds were visually evaluated by comparison to untreated controls after 21 days. Plant response ratings, summarized in Table D, are based on a scale of 0 to 100 where 0 is no effect and 100 is complete control. A dash (-) response means no test result.
# [6] = system: water-seeded rice seedlings (Oryza sativa cv. ‘Japonica—M202’); experiment: Test D flooded paddy plant response; details: Flood, scale 0 to 100 (0 no effect, 100 complete control), 21 days
# Description: as §2, §3, §4
# [7] = system: tropical (T.) spiderwort (Commelina benghalensis); experiment: Test E pre-/postemergence plant response; details: scale 0 to 100
# How it was run: as §1
smiles,measurement,setting,value
CCc1cc(-c2ccc(C(F)(F)F)cc2)nn1-c1c(OC(=O)OC(C)C)cnn(C)c1=O [Compound 12],"TRZAW Obsd. (observed effect) plant response rating, scale 0 to 100","[1]; postemergence, 4 g a.i./ha",0
same,"TRZAW Obsd. (observed effect) plant response rating, scale 0 to 100","[1]; postemergence, 8 g a.i./ha",18
same,"TRZAW Obsd. (observed effect) plant response rating, scale 0 to 100","[1]; postemergence, 16 g a.i./ha",77
same,"TRZAW Obsd. (observed effect) plant response rating, scale 0 to 100","[1]; preemergence, 4 g a.i./ha",0
same,"TRZAW Obsd. (observed effect) plant response rating, scale 0 to 100","[1]; preemergence, 8 g a.i./ha",75
same,"TRZAW Obsd. (observed effect) plant response rating, scale 0 to 100","[1]; preemergence, 16 g a.i./ha",97
same,"HORVX Obsd. (observed effect) plant response rating, scale 0 to 100","[2]; postemergence, 4 g a.i./ha",0
same,"HORVX Obsd. (observed effect) plant response rating, scale 0 to 100","[2]; postemergence, 8 g a.i./ha",32
same,"HORVX Obsd. (observed effect) plant response rating, scale 0 to 100","[2]; postemergence, 16 g a.i./ha",65
same,"HORVX Obsd. (observed effect) plant response rating, scale 0 to 100","[2]; preemergence, 4 g a.i./ha",10
same,"HORVX Obsd. (observed effect) plant response rating, scale 0 to 100","[2]; preemergence, 8 g a.i./ha",73
same,"HORVX Obsd. (observed effect) plant response rating, scale 0 to 100","[2]; preemergence, 16 g a.i./ha",80
same,"AVEFA Obsd. (observed effect) plant response rating, scale 0 to 100","[3]; postemergence, 4 g a.i./ha",13
same,"AVEFA Obsd. (observed effect) plant response rating, scale 0 to 100","[3]; postemergence, 8 g a.i./ha",98
same,"AVEFA Obsd. (observed effect) plant response rating, scale 0 to 100","[3]; postemergence, 16 g a.i./ha",100
same,"AVEFA Obsd. (observed effect) plant response rating, scale 0 to 100","[3]; preemergence, 4 g a.i./ha",7
same,"AVEFA Obsd. (observed effect) plant response rating, scale 0 to 100","[3]; preemergence, 8 g a.i./ha",92
same,"AVEFA Obsd. (observed effect) plant response rating, scale 0 to 100","[3]; preemergence, 16 g a.i./ha",96
same,"Plant response rating, Field Bindweed","[4]; 4 g ai/ha, Postemergence",0
same,"Plant response rating, Field Bindweed","[4]; 8 g ai/ha, Preemergence",0
same,"Plant response rating, Field Bindweed","[4]; 31 g ai/ha, Preemergence",0
same,"Plant response rating, Field Bindweed","[4]; Postemergence, 8 g ai/ha",0
same,"Plant response rating, Field Bindweed","[4]; Postemergence, 31 g ai/ha",0
same,"Plant response rating, Field Bindweed","[4]; Preemergence, 4 g ai/ha",0
CCc1cc(-c2ccc(Cl)cc2)nn1-c1c(O)cnn(C)c1=O [Compound 21],"Plant response rating, Junglerice",[5]; 16 g ai/ha,0
same,"Plant response rating, Junglerice",[5]; 32 g ai/ha,70
same,"Plant response rating, Junglerice",[5]; 64 g ai/ha,100
same,"Plant response rating, Junglerice",[5]; 125 g ai/ha,100
same,"Plant response rating, Junglerice",[5]; 250 g ai/ha,100
same,"Plant response rating, Rice, Water Seeded",[6]; 16 g ai/ha,0
same,"Plant response rating, Rice, Water Seeded",[6]; 32 g ai/ha,20
same,"Plant response rating, Rice, Water Seeded",[6]; 64 g ai/ha,35
same,"Plant response rating, Rice, Water Seeded",[6]; 125 g ai/ha,65
same,"Plant response rating, Rice, Water Seeded",[6]; 250 g ai/ha,75
same,"Plant response rating, Spiderwort, T.","[7]; 16 g ai/ha, Preemergence",0
same,"Plant response rating, Spiderwort, T.","[7]; 31 g ai/ha, Preemergence",0
same,"Plant response rating, Spiderwort, T.","[7]; 62 g ai/ha, Preemergence",0
same,"Plant response rating, Spiderwort, T.","[7]; Postemergence, 8 g ai/ha",0
same,"Plant response rating, Spiderwort, T.","[7]; Postemergence, 16 g ai/ha",0
same,"Plant response rating, Spiderwort, T.","[7]; Postemergence, 31 g ai/ha",0
same,"Plant response rating, Spiderwort, T.","[7]; Postemergence, 62 g ai/ha",0
Cc1cc(-c2ccc(Cl)cc2)nn1-c1c(OS(=O)(=O)c2ccccc2)cnn(C)c1=O [Compound 35],"Plant response rating, Spiderwort, T.","[7]; 16 g ai/ha, Preemergence",0
same,"Plant response rating, Spiderwort, T.","[7]; 31 g ai/ha, Preemergence",0
same,"Plant response rating, Spiderwort, T.","[7]; 62 g ai/ha, Preemergence",0
same,"Plant response rating, Spiderwort, T.","[7]; Postemergence, 8 g ai/ha",0
same,"Plant response rating, Spiderwort, T.","[7]; Postemergence, 16 g ai/ha",0
same,"Plant response rating, Spiderwort, T.","[7]; Postemergence, 31 g ai/ha",0
same,"Plant response rating, Spiderwort, T.","[7]; Postemergence, 62 g ai/ha",0
CCCc1cc(-c2ccc(Cl)cc2)nn1-c1c(O)cnn(C)c1=O [Compound 43],"Plant response rating, Junglerice",[5]; 16 g ai/ha,0
same,"Plant response rating, Junglerice",[5]; 32 g ai/ha,0
same,"Plant response rating, Junglerice",[5]; 64 g ai/ha,60
same,"Plant response rating, Junglerice",[5]; 125 g ai/ha,100
same,"Plant response rating, Junglerice",[5]; 250 g ai/ha,100
same,"Plant response rating, Rice, Water Seeded",[6]; 16 g ai/ha,0
same,"Plant response rating, Rice, Water Seeded",[6]; 32 g ai/ha,0
same,"Plant response rating, Rice, Water Seeded",[6]; 64 g ai/ha,0
same,"Plant response rating, Rice, Water Seeded",[6]; 125 g ai/ha,30
same,"Plant response rating, Rice, Water Seeded",[6]; 250 g ai/ha,35
